# Laboratory results published in ChEMBL document CHEMBL1152592, “Design, synthesis and biological evaluations of novel 7-[3-(1-aminocycloalkyl)pyrrolidin-1-yl]-6-desfluoro-8-methoxyquinolones with potent antibacterial activity against multi-drug resistant Gram-positive bacteria” (Bioorg Med Chem, 2009).
# Assays:
# [1] = test system: Streptococcus mitis; test: Antibacterial activity against Streptococcus mitis IID685 after 18 hrs by twofold microbroth dilution method; type: functional; conditions: IID685, 18 h
# [2] = test system: Staphylococcus aureus; test: Antibacterial activity against Staphylococcus aureus FDA 209-P after 18 hrs by twofold microbroth dilution method; type: functional
# [3] = test system: Escherichia coli; test: Antibacterial activity against Escherichia coli NIHJ after 18 hrs by twofold microbroth dilution method; type: functional
# [4] = test system: Streptococcus pyogenes; test: Antibacterial activity against Streptococcus pyogenes G-36 after 18 hrs by twofold microbroth dilution method; type: functional; conditions: G-36, 18 h
# [5] = test system: Pseudomonas aeruginosa; test: Antibacterial activity against Pseudomonas aeruginosa PAO1 after 18 hrs by twofold microbroth dilution method; type: functional; conditions: PAO1, 18 h
# [6] = test system: Enterococcus faecalis; test: Antibacterial activity against Enterococcus faecalis ATCC 19433 after 18 hrs by twofold microbroth dilution method; type: functional; conditions: ATCC19433, 18 h
# [7] = test system: Klebsiella pneumoniae; test: Antibacterial activity against Klebsiella pneumoniae type 2 after 18 hrs by twofold microbroth dilution method; type: functional; conditions: type 2, 18 h
# [8] = test system: Staphylococcus epidermidis; test: Antibacterial activity against Staphylococcus epidermidis 56500 after 18 hrs by twofold microbroth dilution method; type: functional; conditions: Staphylococcus epidermidis, 56500, 18 h
# [9] = test system: Streptococcus pneumoniae; test: Antibacterial activity against Streptococcus pneumoniae J-24 after 18 hrs by twofold microbroth dilution method; type: functional; conditions: J-24, 18 h
# [10] = Inhibition of Staphylococcus aureus DNA topoisomerase 4 Ser80Phe mutant
# [11] = test system: Enterococcus faecium; test: Antibacterial activity against vancomycin-resistant Enterococcus faecium after 18 hrs by twofold microbroth dilution method; type: functional
# [12] = test system: Enterococcus faecalis; test: Antibacterial activity against vancomycin-resistant Enterococcus faecalis after 18 hrs by twofold microbroth dilution method; type: functional
# [13] = test system: Staphylococcus aureus; test: Antibacterial activity against ciprofloxacin, methicillin-resistant Staphylococcus aureus after 18 hrs by twofold microbroth dilution method; type: functional
# [14] = test system: Staphylococcus aureus; test: Antibacterial activity against levofloxacin, methicillin-resistant Staphylococcus aureus after 18 hrs by twofold microbroth dilution method; type: functional
# [15] = Inhibition of Staphylococcus aureus wild type DNA topoisomerase 4
# [16] = test system: Streptococcus pneumoniae; test: Antibacterial activity against penicillin-intermediate resistant Streptococcus pneumoniae after 18 hrs by twofold microbroth dilution method; type: functional
# [17] = target: DNA gyrase (Staphylococcus aureus, UniProt P0A0K8+P20831); test: Inhibition of Staphylococcus aureus wild type DNA gyrase; type: protein-complex assay
# [18] = test system: Staphylococcus aureus; test: Selectivity ratio of IC50 for Staphylococcus aureus DNA topoisomerase 4 Ser80Phe mutant to IC50 for Staphylococcus aureus wild type DNA topoisomerase 4
# [19] = target: DNA gyrase subunit A (Staphylococcus aureus, UniProt P20831, S84L); test: Inhibition of Staphylococcus aureus DNA gyrase Ser84Leu mutant
# [20] = test system: Staphylococcus aureus; test: Selectivity ratio of IC50 for Staphylococcus aureus DNA gyrase Ser84Leu mutant to IC50 for Staphylococcus aureus wild type DNA gyrase
# [21] = test system: Mus musculus; test: Toxicity in Slc:ddY mouse at 150 mg/kg, iv; type: organism-based; set-up: dose 150 mg/kg, route intravenous; conditions: in vivo
# [22] = Aqueous […] of the compound; type: physicochemical; conditions: aqueous (not further specified)
# [23] = test system: Mus musculus; test: Toxicity in Slc:ddY mouse at 100 mg/kg, iv; type: organism-based; set-up: dose 100 mg/kg, route intravenous; conditions: in vivo
# [24] = test system: Mus musculus; test: Toxicity in Slc:ddY mouse assessed as micronucleated reticulocyte in blood at 100 mg/kg, iv after 48 hrs of treatment by fluorescence microscopy; type: organism-based; set-up: dose 100 mg/kg, route intravenous; conditions: in vivo
# [25] = test system: Mus musculus; test: Toxicity in Slc:ddY mouse at 50 mg/kg, iv; type: organism-based; set-up: dose 50 mg/kg, route intravenous; conditions: in vivo
SMILES,MIC [1],MIC [2],MIC [3],MIC [4],MIC [5],MIC [6],MIC [7],MIC [8],MIC [9],IC50 [10],MIC50 [11],MIC90 [11],MIC50 [12],MIC90 [12],MIC50 [13],MIC90 [13],MIC50 [14],MIC80 [14],MIC90 [14],IC50 [15],also measured
N[C@@H]1[C@H]2CN(c3nc4c(cc3F)c(=O)c(C(=O)O)cn4-c3ccc(F)cc3F)C[C@@H]12 [TROVAFLOXACIN],0.1 µg/mL,0.013 µg/mL,≤ 0.003 µg/mL,0.2 µg/mL,0.2 µg/mL,0.2 µg/mL,0.025 µg/mL,0.05 µg/mL,0.05 µg/mL,,,,,,,,,,,,
COc1c(N2C[C@@H]3CCCN[C@@H]3C2)c(F)cc2c(=O)c(C(=O)O)cn(C3CC3)c12 [MOXIFLOXACIN],0.1 µg/mL,0.013 µg/mL,0.006 µg/mL,0.2 µg/mL,0.78 µg/mL,0.2 µg/mL,0.05 µg/mL,0.1 µg/mL,0.025 µg/mL,24.2 µg/mL,4 µg/mL,32 µg/mL,16 µg/mL,32 µg/mL,2 µg/mL,32 µg/mL,4 µg/mL,32 µg/mL,32 µg/mL,1.36 µg/mL,
C[C@H]1NCc2cc(-c3ccc4c(=O)c(C(=O)O)cn(C5CC5)c4c3OC(F)F)ccc21 [GARENOXACIN],0.05 µg/mL,0.025 µg/mL,0.012 µg/mL,0.1 µg/mL,0.78 µg/mL,0.2 µg/mL,0.05 µg/mL,0.05 µg/mL,0.025 µg/mL,20.7 µg/mL,8 µg/mL,32 µg/mL,4 µg/mL,8 µg/mL,1 µg/mL,32 µg/mL,2 µg/mL,64 µg/mL,64 µg/mL,1.14 µg/mL,MIC50 [16]: 0.12 µg/mL; MIC90 [16]: 0.12 µg/mL; IC50 [17]: 8.42 µM; Ratio IC50 [18]: 18.2; IC50 [19]: > 1200 µM; Ratio IC50 [20]: > 143
COc1c(N2CC[C@@H](C3(N)CCC3)C2)ccc2c(=O)c(C(=O)O)cn([C@@H]3C[C@@H]3F)c12,0.003 µg/mL,≤ 0.003 µg/mL,0.012 µg/mL,0.006 µg/mL,0.39 µg/mL,0.05 µg/mL,0.05 µg/mL,0.012 µg/mL,0.006 µg/mL,,,,,,,,,,,,Activity [21]: Toxic; solubility [22]: 604 µg/mL; Activity [23]: Non-toxic; Activity [24]: Toxic; Activity [25]: Non-toxic
CN[C@H](CC(C)C)C(=O)N[C@H]1C(=O)N[C@@H](CC(N)=O)C(=O)N[C@H]2C(=O)N[C@H]3C(=O)N[C@H](C(=O)N[C@H](C(=O)O)c4cc(O)cc(O)c4-c4cc3ccc4O)[C@H](O)c3ccc(c(Cl)c3)Oc3cc2cc(c3O[C@@H]2O[C@H](CO)[C@@H](O)[C@H](O)[C@H]2O[C@H]2C[C@](C)(N)[C@H](O)[C@H](C)O2)Oc2ccc(cc2Cl)[C@H]1O [VANCOMYCIN],,,,,,,,,,,> 128 µg/mL,> 128 µg/mL,> 128 µg/mL,> 128 µg/mL,1 µg/mL,2 µg/mL,1 µg/mL,1 µg/mL,1 µg/mL,,MIC50 [16]: 0.5 µg/mL; MIC90 [16]: 0.5 µg/mL
C[C@H]1COc2c(N3CCN(C)CC3)c(F)cc3c(=O)c(C(=O)O)cn1c23.C[C@H]1COc2c(N3CCN(C)CC3)c(F)cc3c(=O)c(C(=O)O)cn1c23.O [LEVOFLOXACIN],,,,,,,,,,57.1 µg/mL,,,,,,,16 µg/mL,> 64 µg/mL,> 64 µg/mL,2.67 µg/mL,IC50 [19]: > 1380 µM
O=C(O)c1cn(C2CC2)c2cc(N3CCNCC3)c(F)cc2c1=O [CIPROFLOXACIN],0.78 µg/mL,0.05 µg/mL,≤ 0.003 µg/mL,1.56 µg/mL,0.05 µg/mL,0.78 µg/mL,0.025 µg/mL,0.2 µg/mL,0.39 µg/mL,22.4 µg/mL,,,,,,,> 64 µg/mL,> 64 µg/mL,> 64 µg/mL,1.24 µg/mL,
